Laboratory results from US20230085307A1, “PYRIDAZINONE COMPOUND AND HERBICIDE” (NISSAN CHEMICAL CORPORATION, priority 2019, published 2023).

Assays:
[1] = test system: late watergrass; assay: Test Example 1: herbicidal activity, application before weed generation under submerged conditions (Table 16, symbol A); assay type: in vivo, late watergrass (Echinochloa oryzicola); details: 320 g/ha applied herbicide
Procedure, shortened: (§1)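 Emulsion formulation, water-diluted to set dose, was put onto the flooded surface (4 cm depth, alluvial soil) the same day weeds were sown and 2.5-leaf rice transplanted. After 3 weeks at 25-30 °C under glass, each species was rated 0 (≤5% kill) to 5 (≥90% kill).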

[2] = test system: southern crabgrass; assay: Test Example 4: herbicidal effect by soil treatment (Table 19, symbol F); assay type: in vivo, southern crabgrass (Digitaria ciliaris); details: amount of applied herbicide 320 g/ha
Procedure, shortened: (§2)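 Soil-surface application: an emulsion agent diluted with water to the predetermined dose is sprayed uniformly over seeds lying under roughly 1.5 cm of sterilized diluvial soil. Boxes stay in a greenhouse at 25° C. to 30° C. Three weeks later, each species is graded on previously defined criteria.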

[3] = test system: redroot pigweed; assay: Test Example 5: herbicidal effect by foliage application, plastic box (Table 20, symbol N); assay type: in vivo, redroot pigweed (Amaranthus retroflexus); details: foliage application, 320 g/ha, three weeks after application
Procedure, shortened: (§3)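 Sow seeds spot-wise in sterilized diluvial soil; cover with ~1.5 cm soil. Grow 14 days in greenhouse, 25° C. to 30° C. Spray foliage with emulsion diluted to predetermined amount. Rate effect after 3 weeks.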

[4] = test system: oval-leafed pondweed; assay: Test Example 1: herbicidal activity, application before weed generation under submerged conditions (Table 16, symbol C); assay type: in vivo, oval-leafed pondweed (Monochoria vaginalis); details: 320 g/ha applied herbicide
Procedure, shortened: as §1

[5] = test system: velvetleaf; assay: Test Example 4: herbicidal effect by soil treatment (Table 19, symbol M); assay type: in vivo, velvetleaf (Abutilon theophrasti); details: amount of applied herbicide 320 g/ha
Procedure, shortened: as §2

[6] = test system: green foxtail; assay: Test Example 4: herbicidal effect by soil treatment (Table 19, symbol G); assay type: in vivo, green foxtail (Setaria viridis); details: amount of applied herbicide 320 g/ha
Procedure, shortened: as §2

[7] = test system: lambsquarters; assay: Test Example 5: herbicidal effect by foliage application, plastic box (Table 20, symbol O); assay type: in vivo, lambsquarters (Chenopodium album); details: foliage application, 320 g/ha, three weeks after application
Procedure, shortened: as §3

[8] = test system: Chinese sprangletop; assay: Test Example 3: herbicidal effect by foliage application, Wagner pot (Table 18, symbol D); assay type: in vivo, chinese sprangletop (Leptochloa chinensis); details: 320 g/ha
Procedure, shortened: (§4)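 Plants were sown in alluvial soil held under 0.1–0.5 cm standing water and grown 14 days in a greenhouse at 25–30 °C. An emulsifiable formulation, water-diluted to the set dose, was then sprayed onto the foliage, and effects were scored three weeks later using previously defined criteria.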

[9] = test system: rice flat sedge; assay: Test Example 3: herbicidal effect by foliage application, Wagner pot (Table 18, symbol E); assay type: in vivo, rice flat sedge (Cyperus iria); details: 320 g/ha
Procedure, shortened: as §4

[10] = test system: Japanese bulrush; assay: Test Example 1: herbicidal activity, application before weed generation under submerged conditions (Table 16, symbol B); assay type: in vivo, Japanese bulrush (Schoenoplectus juncoides); details: 320 g/ha applied herbicide
Procedure, shortened: as §1

[11] = test system: persian speedwell; assay: Test Example 5: herbicidal effect by foliage application, plastic box (Table 20, symbol R); assay type: in vivo, Persian speedwell (Veronica persica); details: foliage application, 320 g/ha, three weeks after application
Procedure, shortened: as §3

[12] = test system: lambsquarters; assay: Test Example 4: herbicidal effect by soil treatment (Table 19, symbol O); assay type: in vivo, lambsquarters (Chenopodium album); details: amount of applied herbicide 320 g/ha
Procedure, shortened: as §2

[13] = test system: wild oat; assay: Test Example 5: herbicidal effect by foliage application, plastic box (Table 20, symbol I); assay type: in vivo, wild oat (Avena fatua); details: foliage application, 320 g/ha, three weeks after application
Procedure, shortened: as §3

[14] = test system: green foxtail; assay: Test Example 5: herbicidal effect by foliage application, plastic box (Table 20, symbol G); assay type: in vivo, green foxtail (Setaria viridis); details: foliage application, 320 g/ha, three weeks after application
Procedure, shortened: as §3

[15] = test system: Italian ryegrass; assay: Test Example 4: herbicidal effect by soil treatment (Table 19, symbol K); assay type: in vivo, Italian ryegrass (Lolium multiflorum); details: amount of applied herbicide 320 g/ha
Procedure, shortened: as §2

[16] = test system: false cleavers; assay: Test Example 4: herbicidal effect by soil treatment (Table 19, symbol Q); assay type: in vivo, false cleavers (Galium spurium); details: amount of applied herbicide 320 g/ha
Procedure, shortened: as §2

[17] = test system: blackgrass; assay: Test Example 5: herbicidal effect by foliage application, plastic box (Table 20, symbol J); assay type: in vivo, blackgrass (Alopecurus myosuroides); details: foliage application, 320 g/ha, three weeks after application
Procedure, shortened: as §3

[18] = test system: barnyard grass; assay: Test Example 3: herbicidal effect by foliage application, Wagner pot (Table 18, symbol H); assay type: in vivo, barnyard grass (Echinochloa crus-galli); details: 320 g/ha
Procedure, shortened: as §4

[19] = test system: Italian ryegrass; assay: Test Example 5: herbicidal effect by foliage application, plastic box (Table 20, symbol K); assay type: in vivo, Italian ryegrass (Lolium multiflorum); details: foliage application, 320 g/ha, three weeks after application
Procedure, shortened: as §3

[20] = test system: windgrass; assay: Test Example 5: herbicidal effect by foliage application, plastic box (Table 20, symbol L); assay type: in vivo, windgrass (Apera spica-venti); details: foliage application, 320 g/ha, three weeks after application
Procedure, shortened: as §3

[21] = test system: barnyard grass; assay: Test Example 4: herbicidal effect by soil treatment (Table 19, symbol H); assay type: in vivo, barnyard grass (Echinochloa crus-galli); details: amount of applied herbicide 320 g/ha
Procedure, shortened: as §2

[22] = test system: chickweed; assay: Test Example 5: herbicidal effect by foliage application, plastic box (Table 20, symbol P); assay type: in vivo, common chickweed (Stellaria media); details: foliage application, 320 g/ha, three weeks after application
Procedure, shortened: as §3

[23] = test system: southern crabgrass; assay: Test Example 5: herbicidal effect by foliage application, plastic box (Table 20, symbol F); assay type: in vivo, southern crabgrass (Digitaria ciliaris); details: foliage application, 320 g/ha, three weeks after application
Procedure, shortened: as §3

[24] = test system: windgrass; assay: Test Example 4: herbicidal effect by soil treatment (Table 19, symbol L); assay type: in vivo, windgrass (Apera spica-venti); details: amount of applied herbicide 320 g/ha
Procedure, shortened: as §2

[25] = test system: redroot pigweed; assay: Test Example 4: herbicidal effect by soil treatment (Table 19, symbol N); assay type: in vivo, redroot pigweed (Amaranthus retroflexus); details: amount of applied herbicide 320 g/ha
Procedure, shortened: as §2

[26] = test system: persian speedwell; assay: Test Example 4: herbicidal effect by soil treatment (Table 19, symbol R); assay type: in vivo, Persian speedwell (Veronica persica); details: amount of applied herbicide 320 g/ha
Procedure, shortened: as §2

[27] = test system: blackgrass; assay: Test Example 4: herbicidal effect by soil treatment (Table 19, symbol J); assay type: in vivo, blackgrass (Alopecurus myosuroides); details: amount of applied herbicide 320 g/ha
Procedure, shortened: as §2

[28] = test system: false cleavers; assay: Test Example 5: herbicidal effect by foliage application, plastic box (Table 20, symbol Q); assay type: in vivo, false cleavers (Galium spurium); details: foliage application, 320 g/ha, three weeks after application
Procedure, shortened: as §3

[29] = test system: velvetleaf; assay: Test Example 5: herbicidal effect by foliage application, plastic box (Table 20, symbol M); assay type: in vivo, velvetleaf (Abutilon theophrasti); details: foliage application, 320 g/ha, three weeks after application
Procedure, shortened: as §3

[30] = test system: barnyard grass; assay: Test Example 5: herbicidal effect by foliage application, plastic box (Table 20, symbol H); assay type: in vivo, barnyard grass (Echinochloa crus-galli); details: foliage application, 320 g/ha, three weeks after application
Procedure, shortened: as §3

[31] = test system: chickweed; assay: Test Example 4: herbicidal effect by soil treatment (Table 19, symbol P); assay type: in vivo, common chickweed (Stellaria media); details: amount of applied herbicide 320 g/ha
Procedure, shortened: as §2

[32] = test system: wild oat; assay: Test Example 4: herbicidal effect by soil treatment (Table 19, symbol I); assay type: in vivo, wild oat (Avena fatua); details: amount of applied herbicide 320 g/ha
Procedure, shortened: as §2

Structure (SMILES) | Herbicidal effect on A: late watergrass (grade 0-5) [1] | herbicidal effect rating, F: southern crabgrass [2] | herbicidal effect grade, N: redroot pigweed [3] | Herbicidal effect on C: oval-leafed pondweed (grade 0-5) [4] | herbicidal effect rating, M: velvetleaf [5] | herbicidal effect rating, G: green foxtail [6] | herbicidal effect grade, O: lambsquarters [7] | herbicidal effect on D (Chinese sprangletop), rating 0-5 [8] | herbicidal effect on E (rice flat sedge), rating 0-5 [9] | Herbicidal effect on B: Japanese bulrush (grade 0-5) [10] | herbicidal effect grade, R: persian speedwell [11] | herbicidal effect rating, O: lambsquarters [12] | herbicidal effect grade, I: wild oat [13] | herbicidal effect grade, G: green foxtail [14] | herbicidal effect rating, K: Italian ryegrass [15] | herbicidal effect rating, Q: false cleavers [16] | herbicidal effect grade, J: blackgrass [17] | herbicidal effect on H (barnyard grass), rating 0-5 [18] | herbicidal effect grade, K: Italian ryegrass [19] | herbicidal effect rating, H: barnyard grass [21] | further results
Cc1nn(C)c(=O)c(-c2c(-c3ccccc3OC(C)C)sc3ccccc23)c1O [1-017] | 3 (Herbicidal rate of 40% or more and less than 70%) | 0 (Herbicidal rate of 5% or less (almost no effect)) | 4 (Herbicidal rate of 70% or more and less than 90%) | 3 (Herbicidal rate of 40% or more and less than 70%) | 0 (Herbicidal rate of 5% or less (almost no effect)) | 0 (Herbicidal rate of 5% or less (almost no effect)) | 3 (Herbicidal rate of 40% or more and less than 70%) | 0 (Herbicidal rate of 5% or less (almost no effect)) | 3 (Herbicidal rate of 40% or more and less than 70%) | 3 (Herbicidal rate of 40% or more and less than 70%) | 5 (Herbicidal rate of 90% or more (almost completely withered)) | 0 (Herbicidal rate of 5% or less (almost no effect)) | 4 (Herbicidal rate of 70% or more and less than 90%) | 4 (Herbicidal rate of 70% or more and less than 90%) | 0 (Herbicidal rate of 5% or less (almost no effect)) | 0 (Herbicidal rate of 5% or less (almost no effect)) | 4 (Herbicidal rate of 70% or more and less than 90%) | 5 (Herbicidal rate of 90% or more (almost completely withered)) | 2 (Herbicidal rate of 20% or more and less than 40%) | 0 (Herbicidal rate of 5% or less (almost no effect)) | herbicidal effect grade, L: windgrass [20]: 4 (Herbicidal rate of 70% or more and less than 90%); herbicidal effect grade, P: chickweed [22]: 5 (Herbicidal rate of 90% or more (almost completely withered)); herbicidal effect grade, F: southern crabgrass [23]: 3 (Herbicidal rate of 40% or more and less than 70%); herbicidal effect rating, L: windgrass [24]: 0 (Herbicidal rate of 5% or less (almost no effect)); herbicidal effect rating, N: redroot pigweed [25]: 0 (Herbicidal rate of 5% or less (almost no effect)); herbicidal effect rating, R: persian speedwell [26]: 4 (Herbicidal rate of 70% or more and less than 90%); herbicidal effect rating, J: blackgrass [27]: 2 (Herbicidal rate of 20% or more and less than 40%); herbicidal effect grade, Q: false cleavers [28]: 5 (Herbicidal rate of 90% or more (almost completely withered)); herbicidal effect grade, M: velvetleaf [29]: 4 (Herbicidal rate of 70% or more and less than 90%); herbicidal effect grade, H: barnyard grass [30]: 4 (Herbicidal rate of 70% or more and less than 90%); herbicidal effect rating, P: chickweed [31]: 4 (Herbicidal rate of 70% or more and less than 90%); herbicidal effect rating, I: wild oat [32]: 1 (Herbicidal rate of 5% or more and less than 20%)
CCCC(=O)Oc1c(C)nn(C)c(=O)c1-c1c(-c2ccc(C(C)=O)cc2)sc2ccccc12 [1-042] | 3 (Herbicidal rate of 40% or more and less than 70%) | 2 (Herbicidal rate of 20% or more and less than 40%) | 4 (Herbicidal rate of 70% or more and less than 90%) | 3 (Herbicidal rate of 40% or more and less than 70%) | 3 (Herbicidal rate of 40% or more and less than 70%) | 3 (Herbicidal rate of 40% or more and less than 70%) | 3 (Herbicidal rate of 40% or more and less than 70%) | 0 (Herbicidal rate of 5% or less (almost no effect)) | 5 (Herbicidal rate of 90% or more (almost completely withered)) | 4 (Herbicidal rate of 70% or more and less than 90%) | 5 (Herbicidal rate of 90% or more (almost completely withered)) | 3 (Herbicidal rate of 40% or more and less than 70%) | 0 (Herbicidal rate of 5% or less (almost no effect)) | 3 (Herbicidal rate of 40% or more and less than 70%) | 3 (Herbicidal rate of 40% or more and less than 70%) | 0 (Herbicidal rate of 5% or less (almost no effect)) | 0 (Herbicidal rate of 5% or less (almost no effect)) | 3 (Herbicidal rate of 40% or more and less than 70%) | 4 (Herbicidal rate of 70% or more and less than 90%) | 0 (Herbicidal rate of 5% or less (almost no effect)) | herbicidal effect grade, P: chickweed [22]: 5 (Herbicidal rate of 90% or more (almost completely withered)); herbicidal effect grade, F: southern crabgrass [23]: 3 (Herbicidal rate of 40% or more and less than 70%); herbicidal effect rating, L: windgrass [24]: 0 (Herbicidal rate of 5% or less (almost no effect)); herbicidal effect rating, N: redroot pigweed [25]: 5 (Herbicidal rate of 90% or more (almost completely withered)); herbicidal effect rating, R: persian speedwell [26]: 5 (Herbicidal rate of 90% or more (almost completely withered)); herbicidal effect rating, J: blackgrass [27]: 0 (Herbicidal rate of 5% or less (almost no effect)); herbicidal effect grade, Q: false cleavers [28]: 2 (Herbicidal rate of 20% or more and less than 40%); herbicidal effect grade, M: velvetleaf [29]: 5 (Herbicidal rate of 90% or more (almost completely withered)); herbicidal effect grade, H: barnyard grass [30]: 3 (Herbicidal rate of 40% or more and less than 70%); herbicidal effect rating, P: chickweed [31]: 4 (Herbicidal rate of 70% or more and less than 90%); herbicidal effect rating, I: wild oat [32]: 0 (Herbicidal rate of 5% or less (almost no effect))
